Source: patent US8722868B2, “Glycosyltransferase, novel glycosyltransferase gene, and novel sugar donor compound” (National University Corporation Tokyo University of …, priority 2009, dated 2014)

What was measured:
[1] = target: T1, carnation-derived glycosyltransferase (SEQ ID NO: 1), recombinant crude enzyme liquid (Dianthus caryophyllus, UniProt E3W9M2); experiment: Glycosyl transfer reaction with carnation-derived glycosyltransferase gene expressed in Escherichia coli; assay type: biochemical; details: E. coli crude enzyme liquid, cyanidin-3-O-β-glucoside, pH 5.6, 30° C., 3 hours
T1 construct: the enzyme comprising 502 amino acid residues was translated, followed by amino acid removal via processing; added initiator methionine (one Met placed before the processed N-terminus SEFDRL...) (N); made in house; host or cells: Escherichia coli JM109 (crude lysate supernatant)
T1 sequence (E3W9M2 31-502): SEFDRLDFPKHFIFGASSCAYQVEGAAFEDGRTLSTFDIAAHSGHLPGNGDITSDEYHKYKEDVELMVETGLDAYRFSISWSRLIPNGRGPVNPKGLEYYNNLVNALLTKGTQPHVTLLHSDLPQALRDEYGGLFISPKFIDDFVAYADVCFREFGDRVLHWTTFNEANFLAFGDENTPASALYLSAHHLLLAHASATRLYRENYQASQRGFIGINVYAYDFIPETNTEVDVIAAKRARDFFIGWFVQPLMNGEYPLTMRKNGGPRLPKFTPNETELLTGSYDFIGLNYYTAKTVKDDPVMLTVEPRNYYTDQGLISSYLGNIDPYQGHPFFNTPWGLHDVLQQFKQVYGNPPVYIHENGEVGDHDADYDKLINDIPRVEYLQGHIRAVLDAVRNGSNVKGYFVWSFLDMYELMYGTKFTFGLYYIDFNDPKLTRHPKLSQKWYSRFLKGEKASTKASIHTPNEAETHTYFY
Procedure: The PCR product was ligated to a pTrcHis2-TOPO vector (Invitrogen) using a pTrcHis2-TOPO TA expression Kit (Invitrogen), followed by transformation of the Escherichia coli JM109 strain. DNA was extracted from the transformed Escherichia coli and the DNA nucleotide sequence was analyzed in the above manner. Accordingly, the direction of cDNA introduction and the nonoccurrence of a PCR-induced nucleotide substitution were confirmed.
The transformed Escherichia coli was seeded on an LB medium containing […] ampicillin (5 ml), followed by shake culture at 30° C. for 4 hours. Then, IPTG was added thereto to result in 1 mM, followed by shake culture at 16° C. for 2 hours. The cultured Escherichia coli was harvested via centrifugation at 1,800×g. The medium was removed therefrom. A 0.1 M citric acid buffer (pH 5.6) (150 μl) was added thereto, followed by sufficient mixing. The resultant was repeatedly subjected to ultrasonication on ice 3 times for 10 seconds (output: 4; duty: 70) using a ultrasonic disintegrator (UD-201, TOMY SEIKO Co., Ltd., Tokyo, Japan), followed by centrifugation at 20,000×g. The supernatant was transferred to a new centrifuge tube and designated as a crude enzyme liquid. […]

[2] = target: T2, glycosyltransferase in crude enzyme extracted from petals of a delphinium (variety: "marine blue") (Delphinium grandiflorum, UniProt E3W9M3); experiment: Detection of glycosyl transfer reaction with delphinium petal crude enzyme (HPLC); assay type: biochemical, delphinium (Delphinium grandiflorum L.); details: cyanidin 3-O-β-glucoside 200 μM, sugar donor 1 mM, pH 5.6, 30° C., 15 minutes
T2 construct: Glycosyltransferase activity was examined using a crude enzyme extracted from; from tissue
T2 sequence (E3W9M3 26-505): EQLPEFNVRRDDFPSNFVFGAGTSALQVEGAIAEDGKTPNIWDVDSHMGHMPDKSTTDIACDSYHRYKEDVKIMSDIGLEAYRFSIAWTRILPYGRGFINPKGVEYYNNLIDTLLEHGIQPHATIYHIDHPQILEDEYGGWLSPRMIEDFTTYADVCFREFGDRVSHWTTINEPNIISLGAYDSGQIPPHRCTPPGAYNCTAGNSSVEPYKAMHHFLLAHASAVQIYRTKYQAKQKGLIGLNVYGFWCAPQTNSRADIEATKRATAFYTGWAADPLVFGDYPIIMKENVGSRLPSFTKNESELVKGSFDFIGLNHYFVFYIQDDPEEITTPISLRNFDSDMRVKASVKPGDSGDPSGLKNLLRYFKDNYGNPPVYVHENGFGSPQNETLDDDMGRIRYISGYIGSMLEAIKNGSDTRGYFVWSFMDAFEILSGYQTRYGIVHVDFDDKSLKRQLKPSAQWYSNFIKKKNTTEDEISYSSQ
Procedure: Glycosyltransferase activity was examined using a crude enzyme extracted from pink petals of a carnation (variety: “Beam Cherry”) or petals of a delphinium (variety: “marine blue”) in the manner described in Example 1. Cyanidin 3-O-β-glucoside (final concentration: 200 μM) and 1-O-β-p-hydroxybenzoyl glucose (final concentration: 1 mM) were used as a receptor and a sugar donor, respectively. The pH was adjusted to 5.6 with a citric acid buffer, followed by a glycosyltransferase reaction at 30° C. for 15 minutes. The reaction was terminated with phosphoric acid (final concentration: 1%), followed by centrifugation for the removal of insoluble matter. Then, the supernatant was analyzed by HPLC. HPLC analysis was carried out using a 1.5% phosphoric acid aqueous solution and methanol as eluents and a Wakopak Handy ODS column (4.6×250 mm, Wako Pure Chemical Industries, Ltd.). Separation was carried out at a flow rate of 1 ml/min with a linear gradient of 20% to 55% methanol (20 minutes). A reaction product was confirmed using a photodiode array detector.

| SMILES | Sugar donor function with recombinant carnation-derived glycosyltransferase (reaction product by HPLC) [1] | Recognition as sugar donor by delphinium glycosylation enzyme [2] |
| --- | --- | --- |
| COc1cc(C(=O)OC2OC(CO)C(O)C(O)C2O)ccc1O (centres unmarked) | Generation of cyanidin 3,5-O-β-diglucoside was confirmed | – |
| O=C(OC1OC(CO)C(O)C(O)C1O)c1ccc(O)cc1 (stereo not drawn) [1-O-β-p-hydroxybenzoyl glucose] | – | recognize 1-O-β-p-hydroxybenzoyl glucose as a sugar donor |
